Assay results: patent US4067990A, “Process for the preparation of insecticidal compositions based on carbamic esters” (Airwick Industries, Inc., priority 1971, dated 1978)
Read-outs that look alike come from different tables or passages of the source.

What was measured:
[1] = at 25° C
[2] = Dissolution capacity of diluents/solvents for Dioxacarb and Arprocarb; assay type: physicochemical
[3] = at 20° C, solute Arprocarb, footnotes

Molecule	Vapour pressure [1]	Dissolution capacity for DIOXACARB ([2]; at 20° C, solute Dioxacarb) [weight %]	Dissolving capacity for Dioxacarb ([2]; at 20° C, solute Dioxacarb)	further results
Tetrachlorodiphenyle	< 0.001 Torr	1.3	1.3%	Vapour pressure ([1]; listed as Tetrachlorodiphenyl): below 0.001 Torr; Vapour pressure ([1]; listed as tetrachlorodiphenyl): < 0.005 Torr
CCCCCCCC(=O)O [Octanoic acid]	0.002 Torr	1.5		
CCCCCCCCCCCCO [Composition 1-Dodecanol, 1-Dodecanol]	0.001 Torr	0.8		
CC#N [Acetonitrile]	86 Torr	35.5	35.5%	
ClC=C(Cl)Cl [Trichloroethylene]	74 Torr	2	approximately 2%	
CCCCCCCCCCCCCC(=O)OC(C)C [Isopropylmyristate]		0.3	0.3%	Vapour pressure ([1]; listed as Isopropyl myristate): ca. 0.001 Torr; Vapour pressure ([1]; listed as isopropylmyristate): < 0.005 Torr; Dissolution capacity for ARPROCARB ([2]; at 20° C, solute Arprocarb): 1.3 weight %; Dissolving capacity for Arprocarb [2, 3]: 1.3%
CCCCCCCCCCCCCCCC [Hexadecane]	0.003 Torr	0		Vapour pressure ([1]; listed as hexadecane): < 0.005 Torr
COC(C)=O [Methylacetate]	216 Torr	19.6	19.6%	Dissolution capacity for ARPROCARB ([2]; at 20° C, solute Arprocarb): 41 weight %; Dissolving capacity for Arprocarb [2, 3]: 41%
CCCCCCCCCCCCC1CC(=O)OC1=O (stereo not shown) [2-Dodecylsuccinic-acid anhydride]	0.007 Torr	2.9		
CCC(C)=O [Methylethylketone]	20 Torr	5		
CC(C)=O [Acetone]	225 Torr			Dissolution capacity for DIOXACARB [2]: 28 weight %; Dissolving capacity for Dioxacarb [2]: 28%
ClC(Cl)Cl [Trichloromethane]	194 Torr			Vapour pressure ([1]; listed as Chloroform): 194 Torr; Dissolution capacity for DIOXACARB [2]: 34 weight %; Dissolving capacity for Dioxacarb [2]: 34%
CCC(C)OC(C)=O (stereo not shown) [sec. Butylacetate]	26 Torr	6		
C1COCCO1 [Dioxan]	35 Torr	23	23%	
CCCOC(C)=O [Propylacetate]	33 Torr	6		
CC(=O)OC(C)C [Isopropylacetate]	55 Torr	6		
CCCCCCC [Heptane]	38.5 Torr		about 0.2%	Dissolution capacity for ARPROCARB ([2]; at 20° C, solute Arprocarb): 0.3 weight %; Dissolving capacity for Arprocarb [2, 3]: 0.3%
CCCCCCCCCCCCCCCCCl [1-Chlorohexadecane]	< 0.0001 Torr	0.7	0.7%	Vapour pressure ([1]; listed as 1-chlorohexadecane): < 0.005 Torr; Vapour pressure ([1]; listed as Chlorohexadecane): below 0.0001 Torr; Dissolving capacity for Arprocarb of the 1:1 mixture with 5-(3,6,9-trioxa-un-decyl-2-oxy)-1,3-benzodioxole ([2]; at 20° C, 1:1 mixture with T.U.O.B.): 2%; Dissolution capacity for ARPROCARB ([2]; at 20° C, solute Arprocarb): 0.4 weight %; Dissolving capacity for Arprocarb [2, 3]: 0.4%
CCCCOC(C)=O [Butylacetate]	11 Torr			Dissolution capacity for DIOXACARB [2]: 5 weight %
CCCCC [Pentane]	513 Torr			Dissolution capacity for ARPROCARB [2]: 0.3 weight %; Dissolution capacity for DIOXACARB [2]: 0.2 weight %; Dissolving capacity for Arprocarb [2]: 0.3%; Dissolving capacity for Dioxacarb [2]: approximately 0.2%
CCCCCO [Amylalcohol]	2.5 Torr	2.6	2.6%	
ClCCl [Dichloromethane]	420 Torr			Dissolution capacity for ARPROCARB [2]: 48 weight %; Dissolution capacity for DIOXACARB [2]: 45 weight %; Dissolving capacity for Arprocarb [2]: approximately 48%; Dissolving capacity for Dioxacarb [2]: 45%
CCCCC(CC)COC(=O)CCCCC(=O)OCC(CC)CCCC (stereo not shown) [Di(2-ethylhexyl)adipate)]	0.007 Torr	2.0		Vapour pressure ([1]; listed as Di(2-ethyl-hexyl) adipate): ~0.007 Torr; Vapour pressure ([1]; listed as di(ethyl-2-hexyl) adipate): < 0.005 Torr; Dissolution capacity for ARPROCARB ([2]; at 20° C, solute Arprocarb): 2.8 weight %; Dissolving capacity for Arprocarb [2, 3]: 2.8%
CCO [Ethanol]				Dissolution capacity for ARPROCARB [2]: 0.3 weight %; Dissolution capacity for DIOXACARB [2]: 0.2 weight %; Dissolving capacity for Arprocarb [2]: 40%; Dissolving capacity for Dioxacarb [2]: 8%
C[N+](=O)[O-] [Nitromethane]	34 Torr	27.5	27.5%	

Molecule	Vapour pressure [1]	Dissolution capacity for DIOXACARB ([2]; at 20° C, solute Dioxacarb) [weight %]	Dissolving capacity for Dioxacarb ([2]; at 20° C, solute Dioxacarb)	further results
CCCCCCCCOC(=O)c1ccccc1C(=O)OCCCCCCCC [Dioctylphthalate]	< 0.0001 Torr	0.1	0.1%	Vapour pressure ([1]; listed as Dioctyl phthalate): below 0.0001 Torr; Vapour pressure ([1]; listed as dioctylphthalate): < 0.005 Torr; Dissolution capacity for ARPROCARB ([2]; at 20° C, solute Arprocarb): 2.6 weight %; Dissolving capacity for Arprocarb [2, 3]: 2.6%
CCCCCCCCCCCCCCBr [1-Bromotetradecane]	< 0.001 Torr	0.1		Vapour pressure ([1]; listed as 1-bromotetradecane): < 0.005 Torr
CCCCOC(=O)c1ccccc1C(=O)OCCCC [Dibutylphthalate]	< 0.0001 Torr	2.7	2.7%	Vapour pressure ([1]; listed as Dibutyl phthalate): ca. 0.0001 Torr; Vapour pressure ([1]; listed as dibutylphthalate): < 0.005 Torr
CO [Methanol]	127 Torr	20.5	20.5%	
CCC(N)(CO)CO [2-Amino-2-ethyl-1,3-propanediol]	0.01 Torr	2.4		
CCCCCC [Hexane]	151 Torr	0.2	approximately 0.2%	Dissolution capacity for ARPROCARB ([2]; at 20° C, solute Arprocarb): 0.3 weight %; Dissolving capacity for Arprocarb [2, 3]: 0.3%
CC(Cl)(Cl)Cl [1.1.1-Trichloro-ethane]	121 Torr	2.3	2.3%	
c1ccccc1 [Benzene]				Dissolution capacity for DIOXACARB [2]: 3 weight %; Dissolving capacity for Dioxacarb [2]: 3%
CCCCCCCC/C=C/CCCCCCCC(=O)CCCCCCC/C=C/CCCCCCCC [Oleone]	< 10^-6 Torr	0.2		
CCC(=O)OC [Methylpropionate]	83 Torr	12		
COCCO [2-Methoxyethanol]	8.6 Torr			Dissolution capacity for DIOXACARB [2]: 15 weight %; Dissolving capacity for Dioxacarb [2]: about 15%
CCOC(=O)CC [Ethylpropionate]	37 Torr	9		
CCCC(=O)OC [Methylbutyrate]	34 Torr	8		
CCCCCl [1-Chlorobutane]	102 Torr	2	2%	
CCOC(C)=O [Ethylacetate]	97 Torr	10.5	10.5%	
C1CCOC1 [Tetrahydrofuran]	176 Torr	33.5	33.5%	Dissolution capacity for ARPROCARB ([2]; at 20° C, solute Arprocarb): 50 weight %; Dissolving capacity for Arprocarb [2, 3]: approximately 50%
CCCC(=O)OCC [Ethylbutyrate]	17 Torr	7		
ter. Dodecanethiol	0.008 Torr	0.2		
CCOCCOCCOC(C)Oc1ccc2c(c1)OCO2 (stereo not shown) [T.U.O.B., 5-(3,6,9-trioxa-undecyl-2-oxy)-1,3-benzodioxole]	< 0.005 Torr	2.9	2.9%	Dissolution capacity for ARPROCARB ([2]; at 20° C, solute Arprocarb): 5.0 weight %; Dissolving capacity for Arprocarb [2, 3]: 5%
CCCCOCCOCCOCCCC [5,8,11-Trioxapentadecane, 5,8,11-Trioxapenta-decane]	0.002 Torr	3.2		
OCC(O)CO [Glycerol]	< 0.0001 Torr	0.6		
COCCOC(C)=O [2-Methoxyethyl acetate]	5 Torr	20		Dissolution capacity for ARPROCARB ([2]; at 20° C, solute Arprocarb): 33 weight %
CC(C)O [Isopropanol]	44 Torr	4.5	4.5%	Dissolution capacity for ARPROCARB ([2]; at 20° C, solute Arprocarb): 30 weight %; Dissolving capacity for Arprocarb [2, 3]: approximately 30%
CCCCCCCC/C=C\CCCCCCCC(=O)O [Oleic acid]	0.0002 Torr	1.2		
CC(=O)OCC(C)C [Isobutylacetate]	17 Torr	6		
